Measured values: PubChem BioAssay AID1963850 (Molecular Pharmacology Branch, DTP, NCI, 2024)

System: 192522-019-R-J2-PDC complex tumor spheroid viability
Assay: Anticancer human tumor 192522-019-R-J2-PDC patient-derived colon adenocarcinoma cell line growth inhibition [POLQ]
Details: for IC50: curve of first compound; for viability, T/C: stronger effect = lower value
Summary of the method: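 Complex spheroid viability model combining PDC tumour cells with endothelial (HUVEC) and MSC stromal cells. Novobiocin, ART-558 or RP6685 were tested singly and in combination with standard and investigational anticancer drugs. Each was titrated in half-log steps from near clinical Cmax, or from 10 microM where Cmax was unknown.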

[1] = second compound 0.0316 µM, first compound 0.0316 µM
[2] = second compound 0.0316 µM, first compound 0.1 µM
[3] = second compound 0.0316 µM, first compound 0.316 µM
[4] = second compound 0.0316 µM, first compound 1 µM
[5] = second compound 0.0316 µM, first compound 3.16 µM
[6] = second compound 0.0316 µM, first compound 10 µM
[7] = second compound 0.1 µM, first compound 0.0316 µM
[8] = second compound 0.1 µM, first compound 0.1 µM
[9] = second compound 0.1 µM, first compound 0.316 µM
[10] = second compound 0.1 µM, first compound 1 µM
[11] = second compound 0.1 µM, first compound 3.16 µM
[12] = second compound 0.1 µM, first compound 10 µM
[13] = second compound 0.316 µM, first compound 0.0316 µM
[14] = second compound 0.316 µM, first compound 0.1 µM
[15] = second compound 0.316 µM, first compound 0.316 µM
[16] = second compound 0.316 µM, first compound 1 µM
[17] = second compound 0.316 µM, first compound 3.16 µM
[18] = second compound 0.316 µM, first compound 10 µM
[19] = second compound 1 µM, first compound 0.0316 µM
[20] = second compound 1 µM, first compound 0.1 µM
[21] = second compound 1 µM, first compound 0.316 µM
[22] = second compound 1 µM, first compound 1 µM
[23] = second compound 1 µM, first compound 3.16 µM
[24] = second compound 1 µM, first compound 10 µM
[25] = second compound 3.16 µM, first compound 0.0316 µM
[26] = second compound 3.16 µM, first compound 0.1 µM
[27] = second compound 3.16 µM, first compound 0.316 µM
[28] = second compound 3.16 µM, first compound 1 µM
[29] = second compound 3.16 µM, first compound 3.16 µM
[30] = second compound 3.16 µM, first compound 10 µM
[31] = second compound 10 µM, first compound 0.0316 µM
[32] = second compound 10 µM, first compound 0.1 µM
[33] = second compound 10 µM, first compound 0.316 µM
[34] = second compound 10 µM, first compound 1 µM
[35] = second compound 10 µM, first compound 3.16 µM
[36] = second compound 10 µM, first compound 10 µM
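Note: spheroids exposed to drugs for seven days before reading.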
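Throughout, for viability, T/C: 100% = DMSO vehicle control viability in luminescence.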

O=C(Nc1ccc(O)c(NS(=O)(=O)c2ccc(F)cc2)c1)c1ccc(-c2ccccc2)cc1 + Cc1cccc(N(C)C(=O)C2C(O)CCN2c2nc(C)cc(C(F)(F)F)c2C#N)c1
IC50 (second compound 0.0316 µM): > 10 µM | IC50 (second compound 0.1 µM): > 10 µM | IC50 (second compound 0.316 µM): > 10 µM | IC50 (second compound 1 µM): > 10 µM | IC50 (second compound 3.16 µM): > 10 µM | IC50 (second compound 10 µM): > 10 µM | viability, T/C [1]: 94.8% | viability, T/C [2]: 97.5% | viability, T/C [3]: 98.2% | viability, T/C [4]: 96.3% | viability, T/C [5]: 106% | viability, T/C [6]: 109% | viability, T/C [7]: 101% | viability, T/C [8]: 98.5% | viability, T/C [9]: 99.7% | viability, T/C [10]: 90.4% | viability, T/C [11]: 101% | viability, T/C [12]: 94.8% | viability, T/C [13]: 96.9% | viability, T/C [14]: 96.4% | viability, T/C [15]: 93.5% | viability, T/C [16]: 101% | viability, T/C [17]: 103% | viability, T/C [18]: 101% | viability, T/C [19]: 113% | viability, T/C [20]: 106% | viability, T/C [21]: 101% | viability, T/C [22]: 102% | viability, T/C [23]: 98.9% | viability, T/C [24]: 103% | viability, T/C [25]: 103% | viability, T/C [26]: 104% | viability, T/C [27]: 106% | viability, T/C [28]: 100% | viability, T/C [29]: 108% | viability, T/C [30]: 105% | viability, T/C [31]: 114% | viability, T/C [32]: 100% | viability, T/C [33]: 106% | viability, T/C [34]: 97.9% | viability, T/C [35]: 99.8% | viability, T/C [36]: 98.5%

CCc1cc2c(N3CCc4c(cc(Cn5ccnc5)cc4-c4cn(C)nc4C(F)(F)F)C3=O)ccnc2c(OC)n1 + COC1C(OC(N)=O)C(O)C(Oc2ccc3c(O)c(NC(=O)c4ccc(O)c(CC=C(C)C)c4)c(=O)oc3c2C)OC1(C)C
IC50 (second compound 0.0316 µM): > 10 µM | IC50 (second compound 0.1 µM): > 10 µM | IC50 (second compound 0.316 µM): > 10 µM | IC50 (second compound 1 µM): > 10 µM | IC50 (second compound 3.16 µM): > 10 µM | IC50 (second compound 10 µM): > 10 µM | viability, T/C [1]: 98.8% | viability, T/C [2]: 89.9% | viability, T/C [3]: 86.5% | viability, T/C [4]: 89.3% | viability, T/C [5]: 88.8% | viability, T/C [6]: 63% | viability, T/C [7]: 101% | viability, T/C [8]: 88.9% | viability, T/C [9]: 93.7% | viability, T/C [10]: 84.7% | viability, T/C [11]: 78.5% | viability, T/C [12]: 67.7% | viability, T/C [13]: 101% | viability, T/C [14]: 93.7% | viability, T/C [15]: 89.9% | viability, T/C [16]: 90.9% | viability, T/C [17]: 68.3% | viability, T/C [18]: 71.2% | viability, T/C [19]: 101% | viability, T/C [20]: 94% | viability, T/C [21]: 85.4% | viability, T/C [22]: 96.6% | viability, T/C [23]: 76.7% | viability, T/C [24]: 67.8% | viability, T/C [25]: 106% | viability, T/C [26]: 102% | viability, T/C [27]: 92% | viability, T/C [28]: 91.9% | viability, T/C [29]: 90.5% | viability, T/C [30]: 68.3% | viability, T/C [31]: 97.5% | viability, T/C [32]: 88.7% | viability, T/C [33]: 95.6% | viability, T/C [34]: 92.1% | viability, T/C [35]: 87.3% | viability, T/C [36]: 74.7%

CNCc1ccc(-c2[nH]c3cc(F)cc4c3c2CCNC4=O)cc1 + COC1C(OC(N)=O)C(O)C(Oc2ccc3c(O)c(NC(=O)c4ccc(O)c(CC=C(C)C)c4)c(=O)oc3c2C)OC1(C)C
IC50 (second compound 0.0316 µM): > 10 µM | IC50 (second compound 0.1 µM): > 10 µM | IC50 (second compound 0.316 µM): > 10 µM | IC50 (second compound 1 µM): > 10 µM | IC50 (second compound 3.16 µM): > 10 µM | IC50 (second compound 10 µM): > 10 µM | viability, T/C [1]: 94.4% | viability, T/C [2]: 90.5% | viability, T/C [3]: 96% | viability, T/C [4]: 99.2% | viability, T/C [5]: 102% | viability, T/C [6]: 99.3% | viability, T/C [7]: 110% | viability, T/C [8]: 96% | viability, T/C [9]: 96.4% | viability, T/C [10]: 103% | viability, T/C [11]: 114% | viability, T/C [12]: 96.4% | viability, T/C [13]: 107% | viability, T/C [14]: 102% | viability, T/C [15]: 102% | viability, T/C [16]: 107% | viability, T/C [17]: 99.5% | viability, T/C [18]: 101% | viability, T/C [19]: 99.7% | viability, T/C [20]: 96% | viability, T/C [21]: 98.5% | viability, T/C [22]: 104% | viability, T/C [23]: 102% | viability, T/C [24]: 97.5% | viability, T/C [25]: 110% | viability, T/C [26]: 98.7% | viability, T/C [27]: 102% | viability, T/C [28]: 101% | viability, T/C [29]: 99.9% | viability, T/C [30]: 95.7% | viability, T/C [31]: 102% | viability, T/C [32]: 95% | viability, T/C [33]: 106% | viability, T/C [34]: 96.9% | viability, T/C [35]: 98.6% | viability, T/C [36]: 102%

C=CC(=O)N1CCN(c2nc(=O)n(-c3c(C)ccnc3C(C)C)c3nc(-c4c(O)cccc4F)c(F)cc23)C(C)C1 (stereo not drawn) + Cc1cccc(N(C)C(=O)C2C(O)CCN2c2nc(C)cc(C(F)(F)F)c2C#N)c1
IC50 (second compound 0.0316 µM): > 10 µM | IC50 (second compound 0.1 µM): > 10 µM | IC50 (second compound 0.316 µM): > 10 µM | IC50 (second compound 1 µM): > 10 µM | IC50 (second compound 3.16 µM): > 10 µM | IC50 (second compound 10 µM): > 10 µM | viability, T/C [1]: 114% | viability, T/C [2]: 85% | viability, T/C [3]: 101% | viability, T/C [4]: 93.8% | viability, T/C [5]: 109% | viability, T/C [6]: 97.9% | viability, T/C [7]: 106% | viability, T/C [8]: 91.4% | viability, T/C [9]: 98.8% | viability, T/C [10]: 103% | viability, T/C [11]: 100% | viability, T/C [12]: 110% | viability, T/C [13]: 95.2% | viability, T/C [14]: 96.9% | viability, T/C [15]: 100% | viability, T/C [16]: 105% | viability, T/C [17]: 101% | viability, T/C [18]: 103% | viability, T/C [19]: 102% | viability, T/C [20]: 105% | viability, T/C [21]: 109% | viability, T/C [22]: 106% | viability, T/C [23]: 102% | viability, T/C [24]: 110% | viability, T/C [25]: 102% | viability, T/C [26]: 96.5% | viability, T/C [27]: 108% | viability, T/C [28]: 98% | viability, T/C [29]: 106% | viability, T/C [30]: 113% | viability, T/C [31]: 107% | viability, T/C [32]: 101% | viability, T/C [33]: 107% | viability, T/C [34]: 113% | viability, T/C [35]: 114% | viability, T/C [36]: 107%
